# According to US8853227B2, “Methotrexate adjuvants to reduce toxicity and methods for using the same” (Tosk, Incorporated, priority 2008, dated 2014):
# What was measured:
# [1] = target: human small intestinal UPase enzyme (Homo sapiens (Human), UniProt Q16831); test: UPase inhibition in human small intestinal tissue homogenate (HPLC of uracil); format: biochemical; details: 5 mM uridine, 37° C., pH 7.3
# Experimental: A range of TK-112690 doses were studied for the their ability to prevent metabolic breakdown of uridine through the in vitro inhibition of mouse and human small intestinal UPase enzyme. UPase activity was determined by HPLC analysis using UV detection of uracil concentration (UPase catabolizes uridine into uracil and ribose-1-phosphate). The UPase enzyme material was prepared from homogenized mouse and human being small intestinal tissue. TK-112690 was dissolved in water (50 mg/ml) and analyzed for UPase inhibition in aqueous solution containing 5 mM uridine, 0.01 M Tris, 0.01 M phosphate, 1 mM EDTA, and 1 mM DTT. Reactions were performed at 37° C. at pH of 7.3.
# […] inhibition of mouse and human UPase was determined from measurements of uracil determined in homogenates by reverse phase HPLC using UV detection. […]
# The aim of this study was to evaluate TK-112690 in vivo as an inhibitor of uridine phosphorylase (UPase) enzyme activity. […] Detection of UPase activity was determined by HPLC analysis using UV detection of uracil concentration (UPase catabolizes uridine into uracil and ribose-1-phosphate).
# The UPase enzyme material was prepared from homogenized mouse and human being small intestinal tissue. TK-112690 was dissolved in water (50 mg/ml) and analyzed for UPase inhibition in aqueous solution containing 5 mM uridine, 0.01 M Tris, 0.01 M phosphate, 1 mM EDTA, and 1 mM DTT. […]
# CCRF-CEM human tumors = test: Mouse Study IV (xenograft with CCRF-CEM implants); format: in vivo, SCID mice; details: MTX 7.5 mg/kg/injection + TK-112690 30 mg/kg ±3 hrs ip; day 27; p=1
# Experimental: In this study, n=10 SCID mice per dose group were treated with CCRF-CEM human tumors and the tumors allowed to grow to a size of approximately 100 mg. Then the animals were treated by intraperitoneal (ip) injection with either control 20% DMSO/80% PBS (1×/day)×5 days (Group 1), MTX 7.5 mg/kg/injection (1×/day)×5 days (Group 2) or MTX 7.5 mg/kg/inj. (1×/day)×5 days+TK-112690 30 mg/kg/inj.±3 hrs (group 3). The Figure provides tumor sizes in each of the 3 groups on Day 27 of the study.
# A xenograft study was performed to analyze the effect of TK-112690. administration on the in vivo efficacy of MTX against a human cancer. Human CCRF-CEM (T-ALL) cells were implanted subcutaneously into SCID mice. Tumor volumes were recorded on a regular basis, and once tumors had become established, treatment was given. […] All treatments were given ip, and TK-112690 was give 3 hours prior to and 3 hours after MTX administration.
# [2] = Mouse Study I (protection from MTX-induced weight loss, LPS/MTX model); format: in vivo, C57BL/6 mice; details: 10 or 30 mg/kg ip 3 hr before and after MTX, LPS+MTX; p<0.004 (10 mg/kg), p<0.0005 (30 mg/kg) vs LPS+MTX
# Experimental: C57BL/6 mice (10 animals/treatment group) were dosed on Day 1 with LPS (5 μg, i.p.). On Day 2, the animals were treated with 200 mg/kg MTX+10 or 30 mg/kg TK-112690 3 hr before and 3 hr after the MTX treatment. On Day 3, the animals were dosed MTX 100 mg/kg+10 or 30 mg/kg TK±3 hr. On day 8, the Day 8-Day 1 weight was determined and results subject to ANOVA. Group 1=saline alone, Group 2=MTX alone, Group 3=LPS alone, Group 4=MTX+LPS, Group 5=10 mg/kg TK-112690+MTX+LPS or Group 6=30 mg/kg TK-112690+MTX+LPS.
# This mouse model is modified from a published procedure (de Koning et al., Int Immunol 18: 941 (2006)). Mice are treated on day one with a single intraperitoneal (ip) dose of lipopolysaccharide (LPS), followed by two consecutive days with 200 and 100 mg/kg ip methotrexate, respectively. Controls include saline alone for days 1, 2, and 3, saline on day 1 plus MTX on days 2 and 3 and LPS on day one with saline injection on days 2 and 3. Experimental groups are given LPS on day one and 10 or 30 mg/kg, TK-112690, a representative 2,2′-anhydropyrimidine test article, ip 3 hours before, and 3 hours after, methotrexate injection on days 2 and 3. Animal weights are measured every day after the first injection with experiment termination five days after the second methotrexate injection (day 8). Weight loss is representative of MTX-induced toxicity, and one aspect of MTX-induced mucositis. […]
# human small intestinal UPase enzyme, sequence (Q16831 whole entry): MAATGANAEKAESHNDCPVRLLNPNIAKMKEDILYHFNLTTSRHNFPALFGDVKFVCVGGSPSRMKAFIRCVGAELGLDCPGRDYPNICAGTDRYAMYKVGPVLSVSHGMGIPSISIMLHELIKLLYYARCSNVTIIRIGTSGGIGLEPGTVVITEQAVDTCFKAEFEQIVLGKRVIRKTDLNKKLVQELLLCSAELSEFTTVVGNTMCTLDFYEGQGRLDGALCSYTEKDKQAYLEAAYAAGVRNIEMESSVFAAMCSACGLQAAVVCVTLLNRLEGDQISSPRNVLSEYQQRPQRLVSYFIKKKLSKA
structure (smiles),measurement,setting,value
"Cc1cn2c(nc1=O)O[C@H]1[C@H](O)[C@@H](CO)O[C@H]12 [TK-112690, 2,2′-anhydro-5-methyluridine]",IC50,[1],20 µM
same,"tumor volume, MTX+TK-112690 versus MTX",CCRF-CEM human tumors,not significantly different
same,protection from MTX-induced weight loss (Day 8-Day 1 mean weight change),[2],highly significant
